Where a name gives a salt, the structure may show the parent alone.

With `CCn1nnc2cc3c(N4CCN(C(=O)Nc5ccc(Oc6ccccc6)cc5)CC4)ncnc3cc21` [Compound 124, 4-(3-Ethyl-3H-1,2,3-triazolo[4,5-g]quinazolin-8-yl)-N-(4-phenoxyphenyl)-1-piperazinecarboxamide], the melting point was in the range of 167 to 168 °C. Regarding `COc1cc2ncnc(N3CCN(C(=O)Nc4ccc(C#N)nc4)CC3)c2cc1OC` [Compound 273, N-(2-Cyano-5-pyridyl)-4-(6,7-dimethoxy-4-quinazolinyl)-1-piperazinecarboxamide], the melting point lay in the range of 275 to 277 °C. `CCOc1cc2ncnc(N3CCN(C(=S)NCc4cccnc4)CC3)c2cc1OCC` [Compound 354, 4-(6,7-Diethoxy-4-quinazolinyl)-N-(3-picolyl)-1-piperazinethiocarboxamide] gave a melting point of 90 to 92 °C.

`COc1cc2ncnc(N3CCN(C(=O)Nc4ccc(C5CCCCC5)cc4)CC3)c2cc1OC` [Compound 26, N-(4-Cyclohexylphenyl)-4-(6,7-dimethoxy-4-quinazolinyl)-1-piperazinecarboxamide] gave a melting point of 238 to 241 °C. `COc1cc2ncnc(N3CCN(C(=O)NS(=O)(=O)c4ccc(Cl)cc4)CC3)c2cc1OC` [Compound 43, N-(4-Chlorobenzenesulfonyl)-4-(6,7-dimethoxy-4quinazolinyl)-1-piperazinecarboxamide] displayed a melting point of 228 to 234 °C. Consider `COc1cc2ncnc(N3CCN(C(=S)Nc4ccc5c(c4)OCCO5)CC3)c2cc1OC` [Compound 209, 4-(6,7-Dimethoxy-4-quinazolinyl)-N-(3,4-ethylenedioxyphenyl)-1-piperazinethiocarboxamide], for which the melting point was in the range of 165 to 166 °C. As for `COc1ccc(NC(=O)N2CCN(c3ncnc4cc(OC)c(OC)cc34)CC2)cc1` [Compound 56, 4-(6,7-Dimethoxy-4-quinazolinyl)-N-(4-methoxyphenyl)-1-piperazinecarboxamide], the melting point was in the range of 221 to 223 °C.

In the case of `Cc1cccc2ncnc(N3CCN(C(=O)Nc4ccc(Oc5ccccc5)cc4)CC3)c12` [Compound 287, 4-(5-Methyl-4-quinazolinyl)-N-(4-phenoxyphenyl)-1-piperazinecarboxamide], the melting point was in the range of 187 to 188 °C. For the compound `CCOc1cc2ncnc(N3CCN(C(=O)Nc4ccc(Oc5ccccc5)cc4)CC3)c2cc1OCC` [Compound 106, 4-(6,7-Diethoxy-4-quinazolinyl)-N-(4-phenoxyphenyl)-1-piperazinecarboxamide], the melting point fell in the range of 187 to 190 °C. `O=C(Nc1ccc(Oc2ccccc2)cc1)N1CCN(c2nccc3ccccc23)CC1` [Compound 422, 4-(1-Isoquinolyl)-N-(4-phenoxyphenyl)-1-piperazinecarboxamide] registered a melting point of 122 to 123 °C. As to `COc1cc(OC)c2ncnc(N3CCN(C(=S)NCc4cccnc4)CC3)c2c1` (as salt: hydrochloride) [Compound 382, 4-(6,8-Dimethoxy-4-quinazolinyl)-N-(3-picolyl)-1-piperazinethiocarboxamide], the melting point is 164 to 167 °C.

On to `COc1cc2ncnc(N3CCN(C(=S)N[C@H](C)c4ccccc4)CC3)c2cc1OC` [Compound 130, (R)-4-(6,7-Dimethoxy-4-quinazolinyl)-N-(1-phenylethyl)-1-piperazinethiocarboxamide], for which the melting point was 99 to 101 °C. As to `COc1cc2ncnc(N3CCN(C(=S)NCCc4ccccc4)CC3)c2cc1OC` [Compound 6, 4-(6,7-Dimethoxy-4-quinazolinyl)-N-(2-phenylethyl)-1-piperazinethiocarboxamide], the melting point was 76 to 80 °C. In the case of `Cc1cccc2ncnc(N3CCN(C(=S)NCc4ccccc4)CC3)c12` [Compound 288, N-Benzyl-4-(5-methyl-4-quinazolinyl)-1-piperazinethiocarboxamide], the melting point was in the range of 165 to 167 °C. `COc1cc2nc(N3CCOCC3)nc(N3CCN(C(=O)Nc4ccc(Oc5ccccc5)cc4)CC3)c2cc1OC` [Compound 393, 4-(6,7-Dimethoxy-2-morpholino-4-quinazolinyl)-N-(4-phenoxyphenyl)-1-piperazinecarboxamide] showed a melting point of 114 to 116 °C. The value for `COc1cc2ncnc(N3CCN(C(=O)Nc4ccc([N+](=O)[O-])c([N+](=O)[O-])c4)CC3)c2cc1OC` was 273 to 274 °C; that for `CC(C)Oc1ccc2c(N3CCN(C(=O)Nc4ccc(Oc5ccccc5)cc4)CC3)ncnc2c1` [Compound 318, 4-(7-Isopropoxy-4-quinazolinyl)-N-(4-phenoxyphenyl)-1-piperazinecarboxamide] was 181 to 182 °C; that for `COc1cc2ncnc(N3CCN(C(=O)Nc4ccc([N+](=O)[O-])cc4Cl)CC3)c2cc1OC` [Compound 82, N-(2-Chloro-4-nitrophenyl)-4-(6,7-dimethoxy-4-quinazolinyl)-1-piperazinecarboxamide] was 194 to 195 °C. The same measure for `COc1cc2ncnc(N3CCN(C(=O)Nc4ccccc4F)CC3)c2cc1OC` [Compound 34, 4-(6,7-Dimethoxy-4-quinazolinyl)-N-(2-fluorophenyl)-1-piperazinecarboxamide]: 176 to 177 °C. Compound `CCn1c(=O)[nH]c2cc3c(N4CCN(C(=O)Nc5ccc(Oc6ccccc6)cc5)CC4)ncnc3cc21` [Compound 123, 4-(3-Ethyl-1,3-dihydro-2-oxo-2H-imidazo[4,5-g]quinazolin-8-yl)-N-(4-phenoxyphenyl)-1-piperazinecarboxamide] yielded a melting point of 248 to 251 °C. Take `COc1cc2ncnc(N3CCN(C(=O)Nc4ccc(Cl)nc4)CC3)c2cc1OC` [Compound 272, N-(2-Chloro-5-pyridyl)-4-(6,7-dimethoxy-4-quinazolinyl)-1-piperazinecarboxamide]: the melting point is 238 to 240 °C. The value for `CCn1c(=O)n(CC)c2cc3c(N4CCN(C(=O)Nc5ccc(Oc6ccccc6)cc5)CC4)nncc3cc21` [Compound 419, 4-(1,3-Diethyl-1,3-dihydro-2-oxo-2H-imidazo[4,5-g]phthalazin-5-yl)-N-(4-phenoxyphenyl)-1-piperazinecarboxamide] was 125 to 128 °C; that for `COc1cc2ncnc(N3CCN(C(=S)Nc4ccc5ccc6cccc7ccc4c5c67)CC3)c2cc1OC` was 140 to 145 °C. The same measure for `O=C(Nc1ccc(Oc2ccccc2)cc1)N1CCN(c2ncnc3ccc([N+](=O)[O-])cc23)CC1` [Compound 311, 4-(6-Nitro-4-quinazolinyl)-N-(4-phenoxyphenyl)-1-piperazinecarboxamide]: 170 to 171 °C; for `COc1cc2ncnc(N3CCN(C(=O)N[C@@H](C)c4ccccc4)CC3)c2cc1OC` [Compound 127, (S)-4-(6,7-Dimethoxy-4-quinazolinyl)-N-(1-phenylethyl)-1-piperazinecarboxamide]: 191 to 192 °C; for `COc1ccc2ncnc(N3CCN(C(=O)Nc4ccc([N+](=O)[O-])cc4)CC3)c2c1` [Compound 308, 4-(6-Methoxy-4-quinazolinyl)-N-(4-nitrophenyl)-1-piperazinecarboxamide]: 228 to 229 °C.

In the case of `CCOC(=O)c1cnc2cc(OC)c(OC)cc2c1N1CCN(C(=S)NCc2ccccc2)CC1` [Compound 409, N-Benzyl-4-(6,7-dimethoxy-3-ethoxycarbonyl-4-quinolyl)-1-piperazinethiocarboxamide], the melting point lay in the range of 174 to 175 °C. Take `C=Cc1ccc(NC(=O)N2CCN(c3ncnc4cc(OC)c(OC)cc34)CC2)cc1` [Compound 164, 4-(6,7-Dimethoxy-4-quinazolinyl)-N-(4-vinylphenyl)-1-piperazinecarboxamide]: the melting point was in the range of 214 to 216 °C.

`CCOc1cc2ncnc(N3CCN(C(=S)NCc4ccccc4)CC3)c2cc1OC` [Compound 337, N-Benzyl-4-(7-ethoxy-6-methoxy-4-quinazolinyl)-1-piperazinethiocarboxamide] displayed a melting point of 168 to 169 °C.

Regarding `CCOc1cc2ncnc(N3CCN(C(=O)Nc4ccc(Oc5ccccc5)cc4)CC3)c2cc1OC` [Compound 335, 4-(7-Ethoxy-6-methoxy-4-quinazolinyl)-N-(4-phenoxyphenyl)-1-piperazinecarboxamide], the melting point lay in the range of 174 to 175 °C. Turning to `COc1cc2ncnc(N3CCN(C(=S)Nc4cccc(C(C)C)c4)CC3)c2cc1OC` [Compound 151, 4-(6,7-Dimethoxy-4-quinazolinyl)-N-(3-isopropylphenyl)-1-piperazinethiocarboxamide], the melting point is 169 to 171 °C. Consider `COc1cc2ncnc(N3CCN(C(=S)Nc4ccc(I)cc4)CC3)c2cc1OC` [Compound 47, 4-(6,7-Dimethoxy-4-quinazolinyl)-N-(4-iodophenyl)-1-piperazinethiocarboxamide], for which the melting point is 129 to 132 °C.

Compound `O=C(Nc1ccc(Oc2ccccc2)cc1)N1CCN(c2ncnc3cc(OCc4ccccc4)c(OCc4ccccc4)cc23)CC1` [Compound 355, 4-(6,7-Dibenzyloxy-4-quinazolinyl)-N-(4-phenoxyphenyl)-1-piperazinecarboxamide] displayed a melting point of 137 to 138 °C. For `COc1cc2ncnc(N3CCN(C(=O)Nc4cc(OC)c(OC)c(OC)c4)CC3)c2cc1OC` [Compound 212, 4-(6,7-Dimethoxy-4-quinazolinyl)-N-(3,4,5-trimethoxyphenyl)-1-piperazinecarboxamide], the melting point is 198 to 199 °C. `Cc1ccc2ncnc(N3CCN(C(=O)Nc4ccc([N+](=O)[O-])cc4)CC3)c2c1` [Compound 293, 4-(6-Methyl-4-quinazolinyl)-N-(4-nitrophenyl)-1-piperazinecarboxamide] came in with a melting point of 126 to 129 °C. The same measure for `COc1cc2ncnc(N3CCN(C(=S)NCC(c4ccccc4)c4ccccc4)CC3)c2cc1OC` [Compound 11, 4-(6,7-Dimethoxy-4-quinazolinyl)-N-(2,2-diphenylethyl)-1-piperazinethiocarboxamide]: 93 to 94 °C; for `COc1cc2ncnc(N3CCN(C(=S)NCc4ccc(C(F)(F)F)cc4)CC3)c2cc1OC` [Compound 161, 4-(6,7-Dimethoxy-4-quinazolinyl)-N-(4-trifluoromethylbenzyl)-1-piperazinethiocarboxamide]: 216 to 217 °C; for `Cc1ccc2ncnc(N3CCN(C(=S)NCc4cccnc4)CC3)c2c1` [Compound 295, 4-(6-Methyl-4-quinazolinyl)-N-(3-picolyl)-1-piperazinethiocarboxamide]: 128 to 129 °C.

Broadly, the melting point is the temperature, or range, at which the solid turns liquid.

Source of the values: patent publication US6472391B2, “Nitrogen-containing heterocyclic compounds” (Millennium Pharmaceuticals, Inc., priority 1996, dated 2002).
